Source: ChEMBL document CHEMBL1641539 (Bioorg Med Chem Lett, 2011)

Legend:
[1] = target: CDK3/cyclin E (Homo sapiens) (UniProt P24864+O96020+Q00526); test: Inhibition of human CDK3/cyclinE at 10 uM after 60 mins by TR-FRET assay; values are per cent of control
[2] = target: SRSF protein kinase 3 (Homo sapiens) (UniProt Q9UPE1); test: Inhibition of human MSSK1 at 10 uM after 60 mins by TR-FRET assay; values are per cent of control
[3] = target: Serine/threonine-protein kinase PLK2 (Homo sapiens) (UniProt Q9NYY3); test: Inhibition of human Snk at 10 uM after 60 mins by TR-FRET assay; conditions: values are per cent of control
Sequence of Serine/threonine-protein kinase PLK2 (Homo sapiens) (Q9NYY3 whole entry, looked up): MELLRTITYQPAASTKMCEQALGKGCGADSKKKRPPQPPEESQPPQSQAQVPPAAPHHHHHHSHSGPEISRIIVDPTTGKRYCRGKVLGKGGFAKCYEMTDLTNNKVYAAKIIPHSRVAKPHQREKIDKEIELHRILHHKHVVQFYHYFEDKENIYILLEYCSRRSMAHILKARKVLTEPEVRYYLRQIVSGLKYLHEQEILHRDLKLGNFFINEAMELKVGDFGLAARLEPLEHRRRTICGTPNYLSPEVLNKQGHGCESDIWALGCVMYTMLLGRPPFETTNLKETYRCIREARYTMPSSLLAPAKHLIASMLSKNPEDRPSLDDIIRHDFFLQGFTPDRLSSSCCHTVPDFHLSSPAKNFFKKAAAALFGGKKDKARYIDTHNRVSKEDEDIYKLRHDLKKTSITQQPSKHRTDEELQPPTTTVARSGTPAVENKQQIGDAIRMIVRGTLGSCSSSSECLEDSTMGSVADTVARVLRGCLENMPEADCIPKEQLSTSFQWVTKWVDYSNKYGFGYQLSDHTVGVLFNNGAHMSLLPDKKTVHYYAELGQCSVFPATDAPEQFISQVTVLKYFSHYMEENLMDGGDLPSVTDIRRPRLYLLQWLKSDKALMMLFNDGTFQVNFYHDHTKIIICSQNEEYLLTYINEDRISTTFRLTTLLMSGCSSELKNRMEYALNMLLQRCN

[4] = target: Ribosomal protein S6 kinase alpha-2 (Homo sapiens) (UniProt Q15349); test: Inhibition of human Rsk3 at 10 uM after 60 mins by TR-FRET assay; conditions: values are per cent of control
[5] = target: Serine/threonine-protein kinase PLK3 (Homo sapiens) (UniProt Q9H4B4); test: Inhibition of human Plk3 at 10 uM after 60 mins by TR-FRET assay; values are per cent of control
[6] = target: Protein kinase C eta type (Homo sapiens) (UniProt P24723); test: Inhibition of human PKCeta at 10 uM after 60 mins by TR-FRET assay; values are per cent of control
Sequence of Protein kinase C eta type (Homo sapiens) (P24723 whole entry): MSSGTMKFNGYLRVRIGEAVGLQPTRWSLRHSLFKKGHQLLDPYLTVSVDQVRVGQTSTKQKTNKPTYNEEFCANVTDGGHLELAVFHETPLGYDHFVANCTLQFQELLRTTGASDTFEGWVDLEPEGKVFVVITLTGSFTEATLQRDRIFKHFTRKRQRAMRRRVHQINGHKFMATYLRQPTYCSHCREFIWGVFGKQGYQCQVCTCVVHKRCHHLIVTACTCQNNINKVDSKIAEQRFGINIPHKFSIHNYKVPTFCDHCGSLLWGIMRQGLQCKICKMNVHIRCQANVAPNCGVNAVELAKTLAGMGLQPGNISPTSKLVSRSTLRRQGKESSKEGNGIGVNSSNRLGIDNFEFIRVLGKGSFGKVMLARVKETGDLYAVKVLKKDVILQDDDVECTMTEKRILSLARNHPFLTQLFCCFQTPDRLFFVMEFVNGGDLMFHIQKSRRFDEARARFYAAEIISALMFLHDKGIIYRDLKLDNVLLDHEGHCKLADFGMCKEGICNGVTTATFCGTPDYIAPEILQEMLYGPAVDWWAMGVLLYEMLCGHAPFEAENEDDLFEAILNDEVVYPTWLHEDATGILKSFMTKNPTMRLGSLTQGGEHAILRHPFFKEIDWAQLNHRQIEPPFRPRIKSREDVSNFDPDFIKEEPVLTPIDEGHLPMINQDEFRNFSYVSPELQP

[7] = target: Serine/threonine-protein kinase pim-1 (Homo sapiens) (UniProt P11309); test: Inhibition of human Pim-1 at 10 uM after 60 mins by TR-FRET assay; values are per cent of control
[8] = target: Tyrosine-protein kinase Fyn (Homo sapiens) (UniProt P06241); test: Inhibition of human Fyn at 10 uM after 60 mins by TR-FRET assay; conditions: values are per cent of control
[9] = target: Fibroblast growth factor receptor 2 (Homo sapiens) (UniProt P21802); test: Inhibition of human FGFR2 at 10 uM after 60 mins by TR-FRET assay; values are per cent of control
[10] = target: Ephrin type-B receptor 4 (Homo sapiens) (UniProt P54760); test: Inhibition of human EphB4 at 10 uM after 60 mins by TR-FRET assay; values are per cent of control
[11] = target: Vascular endothelial growth factor receptor 2 (Homo sapiens) (UniProt P35968); test: Inhibition of human KDR at 10 uM after 60 mins by TR-FRET assay; values are per cent of control
[12] = target: Protein-tyrosine kinase 2-beta (Homo sapiens) (UniProt Q14289); test: Inhibition of human Pyk2 at 10 uM after 60 mins by TR-FRET assay; values are per cent of control
[13] = target: Tyrosine-protein kinase Fgr (Homo sapiens) (UniProt P09769); test: Inhibition of human Fgr at 10 uM after 60 mins by TR-FRET assay; values are per cent of control
Sequence of Tyrosine-protein kinase Fgr (Homo sapiens) (P09769 2-529 limits assumed): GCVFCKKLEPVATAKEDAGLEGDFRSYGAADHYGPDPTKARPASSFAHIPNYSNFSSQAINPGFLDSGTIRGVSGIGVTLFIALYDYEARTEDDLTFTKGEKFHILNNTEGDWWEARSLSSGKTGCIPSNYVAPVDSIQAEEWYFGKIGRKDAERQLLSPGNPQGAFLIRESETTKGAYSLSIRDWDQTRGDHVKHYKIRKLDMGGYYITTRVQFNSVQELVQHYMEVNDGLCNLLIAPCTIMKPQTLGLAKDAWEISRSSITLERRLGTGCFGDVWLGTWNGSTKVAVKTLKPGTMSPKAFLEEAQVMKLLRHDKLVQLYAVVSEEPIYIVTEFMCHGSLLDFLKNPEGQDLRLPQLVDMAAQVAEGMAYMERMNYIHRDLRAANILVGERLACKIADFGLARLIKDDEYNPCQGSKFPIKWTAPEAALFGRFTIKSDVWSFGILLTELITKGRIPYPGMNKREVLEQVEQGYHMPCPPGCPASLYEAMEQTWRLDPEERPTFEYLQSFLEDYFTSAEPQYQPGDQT

[14] = target: Serine/threonine-protein kinase N2 (Homo sapiens) (UniProt Q16513); test: Inhibition of human PRK2 at 10 uM after 60 mins by TR-FRET assay; values are per cent of control
[15] = target: Serine/threonine-protein kinase NLK (Homo sapiens) (UniProt Q9UBE8); test: Inhibition of human NLK at 10 uM after 60 mins by TR-FRET assay; values are per cent of control
Sequence of Serine/threonine-protein kinase NLK (Homo sapiens) (Q9UBE8 whole entry): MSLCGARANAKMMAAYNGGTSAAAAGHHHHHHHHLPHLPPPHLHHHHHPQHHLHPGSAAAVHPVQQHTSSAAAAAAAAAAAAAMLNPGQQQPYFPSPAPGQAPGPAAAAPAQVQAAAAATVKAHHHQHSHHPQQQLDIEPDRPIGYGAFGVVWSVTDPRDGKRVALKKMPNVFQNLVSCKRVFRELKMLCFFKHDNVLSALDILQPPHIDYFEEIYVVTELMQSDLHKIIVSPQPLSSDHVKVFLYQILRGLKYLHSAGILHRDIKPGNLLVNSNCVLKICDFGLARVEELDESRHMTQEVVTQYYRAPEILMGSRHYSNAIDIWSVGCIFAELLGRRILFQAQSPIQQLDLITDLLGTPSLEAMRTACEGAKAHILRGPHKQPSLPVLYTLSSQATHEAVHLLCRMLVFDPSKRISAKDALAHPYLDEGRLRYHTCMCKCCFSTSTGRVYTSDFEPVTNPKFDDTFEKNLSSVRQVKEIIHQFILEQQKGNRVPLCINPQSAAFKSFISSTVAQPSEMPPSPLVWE

[16] = target: Serine/threonine-protein kinase TBK1 (Homo sapiens) (UniProt Q9UHD2); test: Inhibition of human TBK1 at 10 uM after 60 mins by TR-FRET assay; values are per cent of control
[17] = target: Mitogen-activated protein kinase 13 (Homo sapiens) (UniProt O15264); test: Inhibition of human SAPK4 at 10 uM after 60 mins by TR-FRET assay; conditions: values are per cent of control
[18] = target: Misshapen-like kinase 1 (Homo sapiens) (UniProt Q8N4C8); test: Inhibition of human MINK at 10 uM after 60 mins by TR-FRET assay; values are per cent of control
Sequence of Misshapen-like kinase 1 (Homo sapiens) (Q8N4C8 whole entry, looked up): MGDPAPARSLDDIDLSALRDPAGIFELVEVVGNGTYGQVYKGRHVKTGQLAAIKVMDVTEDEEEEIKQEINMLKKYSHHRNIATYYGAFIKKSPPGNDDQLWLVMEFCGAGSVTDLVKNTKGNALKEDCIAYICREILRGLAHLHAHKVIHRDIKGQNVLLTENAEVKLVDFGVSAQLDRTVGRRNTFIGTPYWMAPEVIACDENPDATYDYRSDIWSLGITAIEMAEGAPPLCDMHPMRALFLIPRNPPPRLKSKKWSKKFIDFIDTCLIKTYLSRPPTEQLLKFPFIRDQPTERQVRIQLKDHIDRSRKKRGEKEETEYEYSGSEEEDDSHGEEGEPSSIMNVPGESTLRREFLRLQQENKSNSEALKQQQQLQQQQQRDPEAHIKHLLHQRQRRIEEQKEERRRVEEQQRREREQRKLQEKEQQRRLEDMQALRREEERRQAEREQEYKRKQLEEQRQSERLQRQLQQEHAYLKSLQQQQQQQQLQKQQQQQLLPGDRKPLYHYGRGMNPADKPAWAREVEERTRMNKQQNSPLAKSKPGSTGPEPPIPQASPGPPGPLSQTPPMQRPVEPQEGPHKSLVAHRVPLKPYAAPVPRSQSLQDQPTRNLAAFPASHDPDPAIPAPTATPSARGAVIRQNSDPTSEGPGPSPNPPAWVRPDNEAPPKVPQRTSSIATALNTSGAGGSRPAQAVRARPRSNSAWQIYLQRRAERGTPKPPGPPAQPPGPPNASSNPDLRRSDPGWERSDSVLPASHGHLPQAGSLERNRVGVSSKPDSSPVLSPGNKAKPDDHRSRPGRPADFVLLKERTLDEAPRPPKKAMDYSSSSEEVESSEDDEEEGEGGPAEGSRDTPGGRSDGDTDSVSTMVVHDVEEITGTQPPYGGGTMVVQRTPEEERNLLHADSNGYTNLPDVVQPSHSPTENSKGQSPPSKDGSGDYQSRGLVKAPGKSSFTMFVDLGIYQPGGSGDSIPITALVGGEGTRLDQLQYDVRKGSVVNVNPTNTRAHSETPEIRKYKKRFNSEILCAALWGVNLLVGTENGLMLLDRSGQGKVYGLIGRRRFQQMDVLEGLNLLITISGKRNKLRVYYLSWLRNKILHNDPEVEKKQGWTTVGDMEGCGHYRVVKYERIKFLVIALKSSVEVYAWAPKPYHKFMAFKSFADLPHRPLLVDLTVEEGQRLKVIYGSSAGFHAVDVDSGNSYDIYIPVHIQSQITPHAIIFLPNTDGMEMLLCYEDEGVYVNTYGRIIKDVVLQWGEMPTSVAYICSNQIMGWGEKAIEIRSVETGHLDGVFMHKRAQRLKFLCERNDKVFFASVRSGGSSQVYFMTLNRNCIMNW

[19] = target: Dual specificity mitogen-activated protein kinase kinase 4 (Mus musculus) (UniProt P47809); test: Inhibition of mouse MKK4 at 10 uM after 60 mins by TR-FRET assay; values are per cent of control
[20] = target: Vascular endothelial growth factor receptor 3 (Homo sapiens) (UniProt P35916); test: Inhibition of human Flt4 at 10 uM after 60 mins by TR-FRET assay; values are per cent of control
[21] = target: Protein kinase C delta type (Homo sapiens) (UniProt Q05655); test: Inhibition of human PKCdelta at 10 uM after 60 mins by TR-FRET assay; values are per cent of control
[22] = target: Serine/threonine-protein kinase Nek11 (Homo sapiens) (UniProt Q8NG66); test: Inhibition of human NEK11 at 10 uM after 60 mins by TR-FRET assay; values are per cent of control
[23] = target: cGMP-dependent protein kinase 1 (Homo sapiens) (UniProt Q13976); test: Inhibition of human PKG1beta at 10 uM after 60 mins by TR-FRET assay; values are per cent of control
[24] = test system: Platelet-derived growth factor receptor alpha (Homo sapiens), P16234 [V561D]; test: Inhibition of human PDGFRalpha V561D mutant at 10 uM after 60 mins by TR-FRET assay; values are per cent of control
[25] = target: Casein kinase I isoform gamma-1 (Homo sapiens) (UniProt Q9HCP0); test: Inhibition of human CK1gamma1 at 10 uM after 60 mins by TR-FRET assay; values are per cent of control
Sequence of Casein kinase I isoform gamma-1 (Homo sapiens) (Q9HCP0 whole entry, looked up, canonical isoform): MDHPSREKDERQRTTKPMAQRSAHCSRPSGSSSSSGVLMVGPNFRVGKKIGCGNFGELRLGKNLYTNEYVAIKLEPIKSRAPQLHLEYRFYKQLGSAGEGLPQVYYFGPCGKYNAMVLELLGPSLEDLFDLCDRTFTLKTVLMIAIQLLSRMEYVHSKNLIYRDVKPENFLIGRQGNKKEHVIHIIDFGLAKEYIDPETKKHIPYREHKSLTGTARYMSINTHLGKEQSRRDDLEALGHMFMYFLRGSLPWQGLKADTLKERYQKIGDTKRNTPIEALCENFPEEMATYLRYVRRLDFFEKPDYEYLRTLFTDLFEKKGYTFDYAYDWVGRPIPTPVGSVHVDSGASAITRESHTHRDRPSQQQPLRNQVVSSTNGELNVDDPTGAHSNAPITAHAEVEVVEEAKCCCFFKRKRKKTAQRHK

[26] = test system: Mast/stem cell growth factor receptor Kit (Homo sapiens), P10721 [D816V]; test: Inhibition of human c-Kit D816V mutant at 10 uM after 60 mins by TR-FRET assay; values are per cent of control
[27] = target: Fibroblast growth factor receptor 4 (Homo sapiens) (UniProt P22455); test: Inhibition of human FGFR4 at 10 uM after 60 mins by TR-FRET assay; values are per cent of control
[28] = target: Inhibitor of nuclear factor kappa-B kinase subunit beta (Homo sapiens) (UniProt O14920); test: Inhibition of human IKK-beta at 10 uM after 60 mins by TR-FRET assay; values are per cent of control
Sequence of Inhibitor of nuclear factor kappa-B kinase subunit beta (Homo sapiens) (O14920 whole entry): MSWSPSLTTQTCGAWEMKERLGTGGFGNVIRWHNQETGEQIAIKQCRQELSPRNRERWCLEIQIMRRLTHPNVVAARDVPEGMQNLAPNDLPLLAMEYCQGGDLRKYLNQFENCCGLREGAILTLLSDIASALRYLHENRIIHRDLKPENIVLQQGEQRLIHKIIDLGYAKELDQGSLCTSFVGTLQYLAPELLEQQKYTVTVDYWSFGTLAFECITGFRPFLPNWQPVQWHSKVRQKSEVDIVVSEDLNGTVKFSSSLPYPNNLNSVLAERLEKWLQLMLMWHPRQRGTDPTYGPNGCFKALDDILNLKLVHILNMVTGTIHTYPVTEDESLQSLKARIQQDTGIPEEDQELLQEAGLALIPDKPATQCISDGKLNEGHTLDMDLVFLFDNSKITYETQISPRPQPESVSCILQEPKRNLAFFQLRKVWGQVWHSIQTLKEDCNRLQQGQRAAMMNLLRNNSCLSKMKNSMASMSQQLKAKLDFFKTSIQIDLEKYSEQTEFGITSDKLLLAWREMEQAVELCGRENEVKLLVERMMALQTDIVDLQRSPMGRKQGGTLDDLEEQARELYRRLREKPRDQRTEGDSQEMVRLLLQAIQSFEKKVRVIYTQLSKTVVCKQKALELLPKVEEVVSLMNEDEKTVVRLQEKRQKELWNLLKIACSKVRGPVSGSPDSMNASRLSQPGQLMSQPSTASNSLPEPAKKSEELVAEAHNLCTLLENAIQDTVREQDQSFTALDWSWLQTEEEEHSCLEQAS

residual activity [1]: 94% | residual activity [2]: 121% | residual activity [3]: 113% | residual activity [4]: 90% | residual activity [5]: 106% | residual activity [6]: 107% | residual activity [7]: 96% | residual activity [8]: 116% | residual activity [9]: 92% | residual activity [10]: 108% | residual activity [11]: 105% | residual activity [12]: 98% | residual activity [13]: 99% | residual activity [14]: 112% | residual activity [15]: 114% | residual activity [16]: 108% | residual activity [17]: 111% | residual activity [18]: 80% | residual activity [19]: 106% | residual activity [20]: 95% | residual activity [21]: 111% | residual activity [22]: 126% | residual activity [23]: 109% | residual activity [24]: 107% | residual activity [25]: 105% | residual activity [26]: 113% | residual activity [27]: 95% | residual activity [28]: 94%
Structure (SMILES): S=c1[nH]nc(-c2ccncc2)n1-c1ccc2ccccc2c1
